Article PMC4309560, “Creating Novel Activated Factor XI Inhibitors through Fragment Based Lead Generation and Structure Aided Drug Design” (PLoS ONE, 2015)
pIC50, pKi: −log10 of the molar value. Like-named read-outs stand apart in the source and are kept apart here.

What was measured:
Human FXIa = target: T1, Human FXIa (Homo sapiens, UniProt P03951); assay: FXIa enzymatic chromogenic assay; format: biochemical
T1 construct: purchased HTI, Essex Junction, USA
Protocol: (§1) Enzymatic assay. […] Selected compounds were also screened against other serine proteases to evaluate their selectivity profiles.
(§2) Once the compounds were synthesized and characterized, enzymatic assays were performed to evaluate the inhibitory activity of the resulting compounds against FXIa and other serine proteases. […] IC50 values for the compounds were determined using equation: Q= V/(1+([I]/IC50)^n) Q denotes the assay readout, V denotes the uninhibited velocity of the enzyme, [I] denotes the inhibitor concentration, n denotes the slope and IC50 is the inhibitor concentration at V/2.
(§3) [S] denotes the substrate concentration.

Human PKK = target: T2, Human PKK (Homo sapiens, UniProt P03952); assay: PKK (plasma kallikrein) chromogenic assay; format: biochemical; conditions: for pKi: converted from IC50
T2 construct: trypsin, plasma kallikrein (PKK), FIXa; purchased Calbiochem, Darmstadt, Germany
Protocol: as §1, §2, §3
PKK. Human PKK was from Calbiochem, Darmstadt, Germany.

[1] = target: T3, Human recombinant thrombin (Homo sapiens, UniProt P00734); assay: Thrombin (FIIa) chromogenic assay; format: biochemical; conditions: for inhibition at 99 µM: read-out: FIIa % inhibition at 99 μM
T3 construct: Human recombinant thrombin was prepared in house; made in house
Protocol: as §1, §2, §3
Thrombin. Human recombinant thrombin was prepared in house.

Human tPA = Human tPA (Homo sapiens, UniProt P00750); assay: biochemical; conditions: read-out: tPA % inhibition at 99 μM
Protocol: as §1, §2
tPa. Human tPA was from Biopool, Umeå, Sweden.

Human plasmin = target: T4, Human plasmin (Homo sapiens, UniProt P00747); assay: Plasmin chromogenic assay; format: biochemical; conditions: for inhibition at 99 µM: read-out: Plasmin % inhibition at 99 μM
T4 construct: Human plasmin was from Enzyme Research Laboratories, Swansea, UK; purchased Enzyme Research Laboratories, Swansea, UK
Protocol: as §1, §2, §3
Plasmin. Human plasmin was from Enzyme Research Laboratories, Swansea, UK.

[2] = target: Recombinant human trypsin (Homo sapiens, UniProt P07477); assay: biochemical; conditions: read-out: Trypsin % inhibition at 99 μM
Protocol: as §1, §2
Trypsin. Recombinant human trypsin was from Polymun, Vienna, Austria.

Human FIXa = Human FIXa (Homo sapiens, UniProt P00740); assay: biochemical; conditions: read-out: FIXa % inhibition at 99 μM
Protocol: as §1, §2

Human FXa = Human FXa (Homo sapiens, UniProt P00742); assay: biochemical; conditions: read-out: FXa % inhibition at 99 μM
Protocol: as §1, §2

[3] = Chromatographic determination of lipophilicity; format: physicochemical; conditions: reversed-phase UPLC, Waters BEH C18 stationary phase, pH 7.4; measured by liquid chromatography, pH7.4
Text: The chromatographic data was obtained utilizing a Waters Aquity UPLC chromatographic system running a gradient from 5–95% acetonitrile at pH7.4. The stationary phase was a Waters BEH C18 2.1x50 mm. Standardized retention data were obtained by normalization against a set of compounds with precisely determined (octanol/water) logD-values. Lipophilicity values for samples were derived from a corresponding calibration curve.

rat hepatocytes = assay: Rat hepatocyte metabolic stability assay; format: in vitro ADME
Protocol: Rat hepatocyte metabolic stability was determined in accordance with the method described by Jacobson et al.. Cryo preserved hepatocytes at a concentration of 10^6 viable cells/mL were used. After thawing, hepatocytes were incubated for 10 min to warm to 37°C and test compounds, dissolved in acetonitrile, were added to give a final concentration of 1 μM. At 0.5, 5, 15, 30, 45, 60, 80, 100 and 120 min, the incubation system was mixed and 20 μL aliquots were transferred at each time point to wells in a separate plate filled with 80 μL acetonitrile to stop the reaction. The quenching plate was then vortexed followed by centrifugation, and supernatants were analyzed by LC/MS/MS. Peak areas were determined from extracted ion chromatograms, and the in vitro intrinsic clearance (in vitro CLint, in μL/min/10^6 cells) of parent compound was calculated from the slope in the regression analysis of the natural logarithm of parent concentration vs. time curve.

Caco2 cells = assay: Caco2 permeability; format: in vitro ADME
Protocol: A monolayer of Caco2 cells, cultured on semi-permeable polycarbonate surfaces, was used to study the permeability in the apical to basolateral direction. The process was atomized by a robotic Tecan EVO platform (Männerdorf, Switzerland) and 24-transwell plates from Costar (Cambridge, MA, USA). HBSS buffer pH 7.4 was dispensed to the basal side of the monolayer. […] Samples for quantitative analysis by LC/MS/MS were withdrawn before the addition of the test substrate and at 45 and 120 min post addition of the test substrate. During incubation the transwell plates were placed in a shaking incubator at 37°C between sampling. The peak areas were exported to Excel where Papp-values and recoveries were calculated. Twenty-two reference compounds with known human oral bioavailability were used to establish a correlation curve with Papp versus the fraction of the oral dose absorbed (fa).

Caco2 efflux = format: in vitro ADME; conditions: human, Caco-2; Caco2, Papp B to A / Papp A to B, pH 7.4 at side A
Text: Efflux was studied in the same Caco2 cells with the modification that HBSS buffer pH 7.4 was used on both sides of the monolayer. The permeability was studied in the apical to basolateral direction (Papp AB) as well as in the basolateral to apical direction and (Papp BA). Efflux ratios were derived from the following equation: Papp BA/Papp AB.

T4 sequence (P00747 581-810 limits assumed): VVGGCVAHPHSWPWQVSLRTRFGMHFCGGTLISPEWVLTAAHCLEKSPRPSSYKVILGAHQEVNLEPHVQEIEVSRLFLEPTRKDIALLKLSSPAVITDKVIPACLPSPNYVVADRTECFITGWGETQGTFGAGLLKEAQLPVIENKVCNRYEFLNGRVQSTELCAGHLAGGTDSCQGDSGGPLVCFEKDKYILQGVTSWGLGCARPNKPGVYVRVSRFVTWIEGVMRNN
T4 sequence (P00747 97-580 partner limits assumed): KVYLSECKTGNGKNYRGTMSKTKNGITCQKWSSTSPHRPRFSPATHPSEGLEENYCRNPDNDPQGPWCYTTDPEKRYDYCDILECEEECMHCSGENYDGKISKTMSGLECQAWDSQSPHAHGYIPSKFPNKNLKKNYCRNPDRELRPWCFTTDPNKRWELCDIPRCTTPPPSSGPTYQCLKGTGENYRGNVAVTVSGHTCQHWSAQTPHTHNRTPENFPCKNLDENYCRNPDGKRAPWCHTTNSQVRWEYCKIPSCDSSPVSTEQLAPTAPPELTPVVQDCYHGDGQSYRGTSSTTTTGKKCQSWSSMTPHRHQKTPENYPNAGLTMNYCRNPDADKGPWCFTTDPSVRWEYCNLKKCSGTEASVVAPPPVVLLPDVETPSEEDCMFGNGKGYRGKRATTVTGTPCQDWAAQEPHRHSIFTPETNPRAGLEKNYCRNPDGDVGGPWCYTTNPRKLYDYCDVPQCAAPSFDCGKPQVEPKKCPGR
T2 sequence (P03952 391-638 limits assumed): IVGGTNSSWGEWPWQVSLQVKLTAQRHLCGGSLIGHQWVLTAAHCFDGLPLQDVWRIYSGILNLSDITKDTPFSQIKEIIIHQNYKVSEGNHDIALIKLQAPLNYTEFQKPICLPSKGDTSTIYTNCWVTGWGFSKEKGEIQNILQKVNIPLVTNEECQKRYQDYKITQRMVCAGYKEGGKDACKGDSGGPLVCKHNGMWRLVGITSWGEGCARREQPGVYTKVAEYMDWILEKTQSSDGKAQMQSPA
T2 sequence (P03952 20-390 partner limits assumed): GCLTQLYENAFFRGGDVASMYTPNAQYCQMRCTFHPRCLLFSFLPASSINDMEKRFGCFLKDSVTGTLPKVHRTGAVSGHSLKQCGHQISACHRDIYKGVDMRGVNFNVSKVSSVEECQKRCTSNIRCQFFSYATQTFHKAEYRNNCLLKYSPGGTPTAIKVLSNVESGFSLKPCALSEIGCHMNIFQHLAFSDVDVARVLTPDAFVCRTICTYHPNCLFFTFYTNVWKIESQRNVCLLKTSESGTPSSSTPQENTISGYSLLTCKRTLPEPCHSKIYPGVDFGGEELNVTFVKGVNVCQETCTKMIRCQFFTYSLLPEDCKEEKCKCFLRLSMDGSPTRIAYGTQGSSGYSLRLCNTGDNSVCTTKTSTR
T1 sequence (P03951 388-625): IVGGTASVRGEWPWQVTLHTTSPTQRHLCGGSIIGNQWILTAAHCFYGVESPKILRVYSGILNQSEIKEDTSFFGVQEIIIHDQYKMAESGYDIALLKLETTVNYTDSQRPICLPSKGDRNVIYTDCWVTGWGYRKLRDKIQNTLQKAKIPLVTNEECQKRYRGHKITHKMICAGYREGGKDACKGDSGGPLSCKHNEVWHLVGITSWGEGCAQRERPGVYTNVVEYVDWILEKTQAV
T1 sequence (P03951 19-387): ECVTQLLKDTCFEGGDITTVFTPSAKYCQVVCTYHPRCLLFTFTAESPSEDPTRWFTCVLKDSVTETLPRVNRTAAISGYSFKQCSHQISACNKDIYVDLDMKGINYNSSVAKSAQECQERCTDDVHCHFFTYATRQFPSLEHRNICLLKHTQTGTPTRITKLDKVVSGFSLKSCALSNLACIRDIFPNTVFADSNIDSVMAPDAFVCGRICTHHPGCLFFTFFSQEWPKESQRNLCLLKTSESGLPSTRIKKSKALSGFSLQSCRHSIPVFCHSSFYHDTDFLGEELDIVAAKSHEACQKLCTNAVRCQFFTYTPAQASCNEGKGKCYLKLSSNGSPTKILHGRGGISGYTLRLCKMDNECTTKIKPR
Sequence of Human FXa (P00742 235-488 limits assumed): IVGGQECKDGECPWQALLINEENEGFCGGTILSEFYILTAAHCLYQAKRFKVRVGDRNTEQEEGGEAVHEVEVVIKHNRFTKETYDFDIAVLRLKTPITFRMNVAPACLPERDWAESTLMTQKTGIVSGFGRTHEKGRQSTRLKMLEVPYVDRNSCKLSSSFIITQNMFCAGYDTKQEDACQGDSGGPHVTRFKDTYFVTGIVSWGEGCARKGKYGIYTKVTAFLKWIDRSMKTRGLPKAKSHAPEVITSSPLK
Sequence of Human FXa (P00742 41-179 partner limits assumed): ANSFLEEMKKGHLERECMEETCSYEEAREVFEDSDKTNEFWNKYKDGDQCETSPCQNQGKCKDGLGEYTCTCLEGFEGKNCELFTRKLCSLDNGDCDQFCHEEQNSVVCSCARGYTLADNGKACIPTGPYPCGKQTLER
Sequence of Human tPA (P00750 36-562): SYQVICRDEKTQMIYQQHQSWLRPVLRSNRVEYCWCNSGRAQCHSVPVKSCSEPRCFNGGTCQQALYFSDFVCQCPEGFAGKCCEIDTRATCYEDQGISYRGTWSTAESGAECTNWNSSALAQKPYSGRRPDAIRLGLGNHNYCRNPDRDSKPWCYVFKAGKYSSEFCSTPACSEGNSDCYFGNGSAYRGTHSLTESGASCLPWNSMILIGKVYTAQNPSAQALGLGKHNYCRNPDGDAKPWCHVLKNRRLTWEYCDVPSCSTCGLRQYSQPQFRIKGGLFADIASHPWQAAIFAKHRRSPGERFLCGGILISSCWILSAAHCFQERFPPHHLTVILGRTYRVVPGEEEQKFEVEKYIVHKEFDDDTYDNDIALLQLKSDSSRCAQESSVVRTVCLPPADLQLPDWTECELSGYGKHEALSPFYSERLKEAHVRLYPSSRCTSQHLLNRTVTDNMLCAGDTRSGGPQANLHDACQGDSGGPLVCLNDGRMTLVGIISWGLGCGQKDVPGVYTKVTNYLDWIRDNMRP
Sequence of Human FIXa (P00740 227-461 limits assumed): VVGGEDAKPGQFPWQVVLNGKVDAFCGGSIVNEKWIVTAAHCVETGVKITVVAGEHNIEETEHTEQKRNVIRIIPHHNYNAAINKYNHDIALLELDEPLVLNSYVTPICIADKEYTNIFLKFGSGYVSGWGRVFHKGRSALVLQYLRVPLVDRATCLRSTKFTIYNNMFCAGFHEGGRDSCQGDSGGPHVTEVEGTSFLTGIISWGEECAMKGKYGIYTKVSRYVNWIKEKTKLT
Sequence of Human FIXa (P00740 47-191 partner limits assumed): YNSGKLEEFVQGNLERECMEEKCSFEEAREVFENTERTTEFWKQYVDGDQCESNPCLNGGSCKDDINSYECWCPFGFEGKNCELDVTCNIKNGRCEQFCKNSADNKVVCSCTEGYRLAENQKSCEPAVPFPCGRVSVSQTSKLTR

SMILES | pIC50 (Human FXIa) | pKi (Human FXIa) | inhibition at 99 µM [1] [%] | inhibition at 99 µM (Human tPA) [%] | inhibition at 99 µM (Human plasmin) [%] | inhibition at 99 µM [2] [%] | inhibition at 99 µM (Human FIXa) [%] | inhibition at 99 µM (Human FXa) [%] | pIC50 (Human PKK) | pKi (Human PKK) | other results
[H]/N=C(/N)c1ccc2cc(C(=O)Nc3ccccc3)cc(Nc3ncccn3)c2c1 [Compound 1] | > 6.85 | – | – | – | – | – | – | – | – | – | –
CCCS(=O)(=O)N[C@@H](C(=O)N[C@@H](CC(C)C)C(=O)NCc1ccc(C(=N)N)cc1)C1CCCCC1 [Compound 2, reference compound] | 6.96 | 7.22 | – | – | – | – | – | – | – | – | –
O=c1ccc2cc(Cl)ccc2[nH]1 [Compound 5] | 3.85 | – | 8 | 0 | 31 | 0 | 1 | 31 | – | – | inhibition at 99 µM (Human PKK; read-out: PKK % inhibition at 99 μM): 5%; ligand efficiency (LE) (Human FXIa; FXIa): 0.44; -ΔG fragment (printed with reversed sign in the ΔG link equation) (Human FXIa; FXIa, subtracted term, so ΔG itself is negative): 5.66 kcal/mol; pKi (Human FXIa; read-out: FXIa Ki): 4.15
N=C(N)c1ccccc1 [Compound 7, benzamidine, reference compound] | 3.21 | – | – | – | – | – | – | – | – | – | –
COC(=O)Nc1ccc(-c2nc(CNC(=O)CCc3cc(Cl)ccc3-n3cnnn3)[nH]c2Cl)cc1 [Compound 11, reference compound] | 6.80 | 7.10 | – | 0 | 0 | 4 | 0 | 6 | 4.70 | 5.38 | pIC50 [1]: 4.20; pKi ([1]; converted from IC50): 4.51
CC(=O)N[C@@H](Cc1ccccc1)C(=O)NCc1cc(=O)[nH]c2ccc(Cl)cc12 [Compound 14, (S)-2-Acetamido-N-{(6-chloro-2-oxo-1,2-dihydroquinolin-4-yl)methyl}-3-phenylpropanamide] | 4.48 | 4.80 | 9 | 3 | 7 | 18 | 4 | 0 | 4.23 | 4.92 | ligand efficiency (LE) (Human FXIa; FXIa): 0.22
CN(C)C(=O)[C@H](Cc1ccccc1)NC(=O)c1ccc2[nH]c(=O)cc(O)c2c1 [Compound 16, (S)-N-(1-(Dimethylamino)-1-oxo-3-phenylpropan-2-yl)-4-hydroxy-2-oxo-1,2-dihydroquinoline-6-carboxamide] | < 3.00 | – | – | – | – | – | – | – | – | – | inhibition at 1000 µM (Human FXIa; read-out: FXIa % inh. at 1 mM): 36%
O=C1CC(CNC(=O)[C@H](Cc2ccccc2)NC(=O)c2ccc3[nH]c(=O)cc(O)c3c2)c2cc(Cl)ccc2N1 (some centres unmarked) [Compound 18, N-({2S}-1-({6-Chloro-2-oxo-1,2,3,4-tetrahydroquinolin-4-yl}methylamino)-1-oxo-3-phenylpropan-2-yl)-4-hydroxy-2-oxo-1,2-dihydroquinoline-6-carboxamide] | 8.00 | 8.30 | – | – | – | – | – | – | – | – | –
Cc1cc(N)nc2ccccc12 [Compound 19] | 3.62 | 3.92 | 8 | 7 | 8 | 43 | 7 | 9 | – | – | –
O=C1CC(CC(=O)NC(Cc2ccccc2)C(=O)Nc2ccc(-c3nnn[nH]3)cc2)c2cc(Cl)ccc2N1 (centres unmarked) [Compound 20, N-(4-(1H-Tetrazol-5-yl)phenyl)-2-(2-(6-chloro-2-oxo-1,2,3,4-tetrahydroquinolin-4-yl)acetamido)-3-phenylpropanamide] | 6.48 | 6.80 | 10 | 15 | 8 | 7 | 4 | 12 | 5.64 | 6.32 | –
O=C(CC1Cc2cc(Cl)ccc2NC1=O)NC(Cc1ccccc1)C(=O)Nc1ccc(-c2nnn[nH]2)cc1 (centres unmarked) [Compound 21, N-(4-(1H-Tetrazol-5-yl)phenyl)-2-(2-(6-chloro-2-oxo-1,2,3,4-tetrahydroquinolin-3-yl)acetamido)-3-phenylpropanamide] | 5.72 | 6.02 | 2 | 3 | 0 | 1 | 0 | 0 | 4.60 | 5.28 | –
O=C(Cc1cc2cc(Cl)ccc2[nH]c1=O)NC(Cc1ccccc1)C(=O)Nc1ccc(-c2nnn[nH]2)cc1 (centres unmarked) [Compound 22, N-(4-(1H-Tetrazol-5-yl)phenyl)-2-(2-(6-chloro-2-oxo-1,2-dihydroquinolin-3-yl)acetamido)-3-phenylpropanamide] | 5.00 | 5.30 | 27 | 18 | – | 14 | 7 | 24 | 5.00 | 5.68 | pIC50 (Human plasmin): 4.15; pKi (Human plasmin; converted from IC50): 4.48
O=C(CCc1cc2cc(Cl)ccc2[nH]c1=O)N[C@@H](Cc1ccccc1)C(=O)Nc1ccc(-c2nnn[nH]2)cc1 [Compound 23, (S)-N-(4-(1H-Tetrazol-5-yl)phenyl)-2-(3-(6-chloro-2-oxo-1,2-dihydroquinolin-3-yl)propanamido)-3-phenylpropanamide] | 4.17 | 4.47 | – | – | – | – | – | – | – | – | –
O=C(CCc1cc(=O)[nH]c2ccc(Cl)cc12)N[C@@H](Cc1ccccc1)C(=O)Nc1ccc(-c2nnn[nH]2)cc1 [Compound 24, (S)-N-(4-(1H-Tetrazol-5-yl)phenyl)-2-(3-(6-chloro-2-oxo-1,2-dihydroquinolin-4-yl)propanamido)-3-phenylpropanamide] | 5.05 | 5.35 | – | – | – | – | – | – | – | – | –
CN(Cc1cc(=O)[nH]c2ccc(Cl)cc12)C(=O)[C@H](Cc1ccccc1)NC(=O)c1ccc2[nH]c(=O)cc(O)c2c1 [Compound 25, (S)-N-(1-[{(6-Chloro-2-oxo-1,2-dihydroquinolin-4-yl)methyl}(methyl)amino]-1-oxo-3-phenylpropan-2-yl)-4-hydroxy-2-oxo-1,2-dihydroquinoline-6-carboxamide] | > 8.30 | – | – | – | – | – | – | – | – | – | inhibition at 0.005 µM (Human FXIa; read-out: FXIa % inh. at 5 nM): 85%; chromatographic logD [3]: 1.3; Rat CLint (rat hepatocytes): 10 μL/min/ 1·10^6 cells; Caco2 A to B permeability (Caco2 cells; measured at pH 6.5): 0.28 1·10^-6 cm/s; efflux ratio (Caco2 efflux): 5.2
Cc1c(-c2ccccc2)n[nH]c1C(=O)N(C)Cc1cc(=O)[nH]c2ccccc12 [Compound 27] | 4.00 | 4.30 | – | – | – | – | – | – | – | – | Rat CLint (rat hepatocytes): 58 μL/min/ 1·10^6 cells; Caco2 A to B permeability (Caco2 cells; measured at pH 7.4 at side A): 12 1·10^-6 cm/s; efflux ratio (Caco2 efflux): 6.7
